Results as given in patent publication US20230053864A1, “Methods for Identifying Modulators of G Protein-Coupled Receptors” (University of Miami, priority 2019, published 2023).
Values joined by “and” are separate entries in the source; they are usually repeats but may differ in a detail not shown here. Identical values can stand only once. “Also recorded” adds a separate entry of the source.

Legend:
[1] = target: T1, GPR35 (Homo sapiens, UniProt Q9HC97); experiment: dCyFIRscreen profiling and titrations in yeast GPCR-Gα reporter strains; assay type: cell-based
T1 construct: expressed in transfected cells; host or cells: Saccharomyces cerevisiae BY4741-derived GPCR-Gα reporter strains, X-2 landing pad
T1 sequence (Q9HC97 whole entry): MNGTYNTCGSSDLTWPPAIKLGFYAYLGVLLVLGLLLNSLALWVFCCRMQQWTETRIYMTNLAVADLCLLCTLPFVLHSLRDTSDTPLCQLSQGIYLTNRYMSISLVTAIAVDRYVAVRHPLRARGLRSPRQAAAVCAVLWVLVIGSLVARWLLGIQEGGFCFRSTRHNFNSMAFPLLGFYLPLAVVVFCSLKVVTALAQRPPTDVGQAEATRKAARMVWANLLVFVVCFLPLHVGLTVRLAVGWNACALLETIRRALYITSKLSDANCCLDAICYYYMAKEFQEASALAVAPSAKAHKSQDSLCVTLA
Method: (§1) Individual Gα reporter strains were grown in SCD LoFo pH=7.0 at 30° C. to an OD=1.0 in a 2.0 mL 96-well DeepWell block (Greiner; 780271-FD). Cells were normalized to an OD of 0.1 in SCD LoFo pH=7.0 using a Biomek NXp liquid-handling robot. 10× ligand/vehicle stocks were prepared (see Table 2) and 4 μL were distributed to each well of a 384-well plate (Greiner; 781096) in quadruplicate using a Biomek NXp. 36 μL normalized cells were distributed to each well containing the appropriate 10× ligand/vehicle. Plates were sealed with a breathable cover (Diversified Biotech; BERM-2000) and incubated at 30° C. Fluorescence readings were collected after 18 hours using a plate reader (ClarioStar, BMG LabTech, Offenburg, Germany) (bottom read, 10 flashes/well, excitation filter: 430-10 nm, dichroic filter: LP 458 nm, emission filter: 482-16 nm, gain=1300 (1500 for FIG. 1B.)). Absorbance readings were also collected after 18 hours using the same instrument (22 flashes/well, excitation filter: 600 nm).
(§2) All titration curves were analyzed using Prism software and the pharmacological fitting function log(agonist) vs. response—Variable slope (four parameters) (GraphPad Software, San Diego, USA).

[2] = target: T2, ADRA2B (Homo sapiens, UniProt P18089); experiment: as above; assay type: cell-based
T2 construct: expressed in transfected cells; host or cells: Saccharomyces cerevisiae BY4741-derived GPCR-Gα reporter strains, X-2 landing pad
T2 sequence (P18089 1-450): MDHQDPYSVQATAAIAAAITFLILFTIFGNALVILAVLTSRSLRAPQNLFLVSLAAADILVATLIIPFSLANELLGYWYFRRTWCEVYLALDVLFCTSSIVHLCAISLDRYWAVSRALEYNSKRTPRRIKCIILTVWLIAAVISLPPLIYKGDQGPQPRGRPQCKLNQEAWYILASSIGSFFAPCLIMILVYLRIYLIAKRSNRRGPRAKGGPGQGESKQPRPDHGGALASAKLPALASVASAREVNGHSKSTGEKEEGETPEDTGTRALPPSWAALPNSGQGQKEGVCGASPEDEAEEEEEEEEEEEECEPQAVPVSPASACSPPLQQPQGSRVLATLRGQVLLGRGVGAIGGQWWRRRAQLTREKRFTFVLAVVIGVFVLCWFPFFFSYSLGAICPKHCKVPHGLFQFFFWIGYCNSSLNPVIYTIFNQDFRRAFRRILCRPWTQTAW
Method: dCyFIRscreen protocol. […] Cells were normalized to an OD of 0.1 in SCD LoFo pH=7.0 using a Biomek NXp liquid-handling robot. […] 36 μL normalized cells were distributed to each well containing the appropriate 10× ligand/vehicle. Plates were sealed with a breathable cover (Diversified Biotech; BERM-2000) and incubated at 30° C. […] Absorbance readings were also collected after 18 hours using the same instrument (22 flashes/well, excitation filter: 600 nm).
Titration Analyses. All titration curves were analyzed using Prism software and the pharmacological fitting function log(agonist) vs. response—Variable slope (four parameters) (GraphPad Software, San Diego, USA).

[3] = target: HCAR3 (Homo sapiens, UniProt P49019); experiment: as above; assay type: cell-based; design: expressed in transfected cells; conditions: for EC50: titration, yeast GPCR-Gα reporter strain, this study
Sequence of HCAR3 (P49019 whole entry): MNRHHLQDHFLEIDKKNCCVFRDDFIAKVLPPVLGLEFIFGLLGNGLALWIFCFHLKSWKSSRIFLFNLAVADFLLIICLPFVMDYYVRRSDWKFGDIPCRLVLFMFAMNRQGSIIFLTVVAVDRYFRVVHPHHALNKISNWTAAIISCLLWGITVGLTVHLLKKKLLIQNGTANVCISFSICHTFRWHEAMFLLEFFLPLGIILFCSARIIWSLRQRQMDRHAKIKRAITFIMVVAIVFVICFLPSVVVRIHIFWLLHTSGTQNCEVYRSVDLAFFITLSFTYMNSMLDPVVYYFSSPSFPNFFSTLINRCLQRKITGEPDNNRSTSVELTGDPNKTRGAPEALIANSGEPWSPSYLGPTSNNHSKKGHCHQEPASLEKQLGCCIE
Method: as §1, §2

[4] = target: T3, LPAR1 (Homo sapiens, UniProt Q92633); experiment: as above; assay type: cell-based
T3 construct: expressed in transfected cells; host or cells: Saccharomyces cerevisiae BY4741-derived GPCR-Gα reporter strains, X-2 landing pad
T3 sequence (Q92633 whole entry): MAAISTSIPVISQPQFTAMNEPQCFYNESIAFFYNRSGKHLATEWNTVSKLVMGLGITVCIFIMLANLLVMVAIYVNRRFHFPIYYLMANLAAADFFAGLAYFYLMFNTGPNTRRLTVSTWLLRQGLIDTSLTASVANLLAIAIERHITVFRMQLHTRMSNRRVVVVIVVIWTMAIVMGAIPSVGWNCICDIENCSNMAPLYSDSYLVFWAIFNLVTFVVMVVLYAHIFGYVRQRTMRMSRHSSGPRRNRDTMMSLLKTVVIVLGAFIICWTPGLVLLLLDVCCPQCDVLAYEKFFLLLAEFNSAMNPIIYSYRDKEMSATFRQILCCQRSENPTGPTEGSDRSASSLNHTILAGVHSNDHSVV
Method: as §1, §2

[5] = target: T4, GPR68 (Homo sapiens, UniProt Q15743); experiment: as above; assay type: cell-based
T4 construct: expressed in transfected cells; host or cells: Saccharomyces cerevisiae BY4741-derived GPCR-Gα reporter strains, X-2 landing pad
T4 sequence (Q15743 whole entry): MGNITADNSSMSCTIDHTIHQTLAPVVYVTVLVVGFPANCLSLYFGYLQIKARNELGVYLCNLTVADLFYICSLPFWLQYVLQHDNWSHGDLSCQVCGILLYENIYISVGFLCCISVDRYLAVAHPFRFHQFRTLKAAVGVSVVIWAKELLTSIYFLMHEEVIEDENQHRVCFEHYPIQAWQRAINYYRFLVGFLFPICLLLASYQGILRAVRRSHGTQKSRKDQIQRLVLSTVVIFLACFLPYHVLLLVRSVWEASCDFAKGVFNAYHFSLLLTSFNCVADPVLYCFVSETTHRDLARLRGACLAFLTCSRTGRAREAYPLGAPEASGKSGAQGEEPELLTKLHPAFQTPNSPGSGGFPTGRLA
Method: as §1, §2

[6] = target: T5, ADORA2A (Homo sapiens, UniProt P29274); experiment: as above; assay type: cell-based
T5 construct: expressed in transfected cells; host or cells: Saccharomyces cerevisiae BY4741-derived GPCR-Gα reporter strains, X-2 landing pad
T5 sequence (P29274 whole entry): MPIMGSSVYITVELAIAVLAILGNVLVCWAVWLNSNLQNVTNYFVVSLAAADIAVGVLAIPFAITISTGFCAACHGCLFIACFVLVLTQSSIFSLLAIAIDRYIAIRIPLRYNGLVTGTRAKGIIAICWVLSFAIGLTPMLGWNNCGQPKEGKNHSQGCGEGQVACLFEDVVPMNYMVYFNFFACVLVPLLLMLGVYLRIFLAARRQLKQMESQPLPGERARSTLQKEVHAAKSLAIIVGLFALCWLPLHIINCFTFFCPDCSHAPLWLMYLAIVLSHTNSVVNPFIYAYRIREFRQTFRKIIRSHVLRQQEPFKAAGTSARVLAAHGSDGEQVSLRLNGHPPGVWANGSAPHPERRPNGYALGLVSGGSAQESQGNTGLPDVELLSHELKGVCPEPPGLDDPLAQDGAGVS
Method: as §1, §2

[7] = target: T6, GPR4 (Homo sapiens, UniProt P46093); experiment: dCyFIRscreen profiling in yeast GPCR-Gα reporter strains; assay type: cell-based
T6 construct: expressed in transfected cells; host or cells: Saccharomyces cerevisiae BY4741-derived GPCR-Gα reporter strains, X-2 landing pad
T6 sequence (P46093 whole entry): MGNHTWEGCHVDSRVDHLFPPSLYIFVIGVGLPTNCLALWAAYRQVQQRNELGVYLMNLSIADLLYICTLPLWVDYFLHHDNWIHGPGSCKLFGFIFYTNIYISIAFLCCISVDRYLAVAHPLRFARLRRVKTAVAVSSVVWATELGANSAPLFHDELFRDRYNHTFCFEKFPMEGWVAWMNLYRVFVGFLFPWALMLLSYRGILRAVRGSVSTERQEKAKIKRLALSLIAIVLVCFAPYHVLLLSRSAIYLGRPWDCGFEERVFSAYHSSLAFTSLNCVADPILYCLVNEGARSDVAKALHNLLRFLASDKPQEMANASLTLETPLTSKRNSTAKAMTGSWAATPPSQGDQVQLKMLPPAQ
Method: as §1

[8] = target: T7, HCAR2 (Homo sapiens, UniProt Q8TDS4); experiment: as above; assay type: cell-based
T7 construct: expressed in transfected cells; host or cells: Saccharomyces cerevisiae BY4741-derived GPCR-Gα reporter strains, X-2 landing pad
T7 sequence (Q8TDS4 whole entry): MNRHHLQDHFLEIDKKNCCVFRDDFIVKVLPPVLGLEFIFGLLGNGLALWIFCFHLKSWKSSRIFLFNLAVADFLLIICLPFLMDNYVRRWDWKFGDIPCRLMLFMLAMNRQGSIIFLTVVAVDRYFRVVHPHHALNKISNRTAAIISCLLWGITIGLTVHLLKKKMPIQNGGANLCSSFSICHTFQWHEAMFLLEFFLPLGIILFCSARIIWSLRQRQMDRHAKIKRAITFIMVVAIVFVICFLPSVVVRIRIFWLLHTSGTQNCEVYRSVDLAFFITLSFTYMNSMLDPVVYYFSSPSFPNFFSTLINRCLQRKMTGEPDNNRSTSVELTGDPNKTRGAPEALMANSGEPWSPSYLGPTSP
Method: as §1

[9] = target: T8, LPAR4 (Homo sapiens, UniProt Q99677); experiment: as above; assay type: cell-based
T8 construct: expressed in transfected cells; host or cells: Saccharomyces cerevisiae BY4741-derived GPCR-Gα reporter strains, X-2 landing pad
T8 sequence (Q99677 whole entry): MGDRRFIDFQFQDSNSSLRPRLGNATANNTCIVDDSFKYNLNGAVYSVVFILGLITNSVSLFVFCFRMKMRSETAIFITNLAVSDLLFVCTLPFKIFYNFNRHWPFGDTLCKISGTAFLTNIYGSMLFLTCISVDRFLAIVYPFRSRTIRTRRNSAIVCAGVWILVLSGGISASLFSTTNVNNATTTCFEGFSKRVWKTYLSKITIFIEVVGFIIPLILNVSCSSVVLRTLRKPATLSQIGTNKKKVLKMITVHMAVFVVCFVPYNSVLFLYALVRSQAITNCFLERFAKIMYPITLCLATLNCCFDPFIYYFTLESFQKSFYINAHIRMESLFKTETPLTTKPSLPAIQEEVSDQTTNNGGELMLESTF
Method: as §1

[10] = system: 20 GPCRs (200 GPCR-Gα strains); experiment: control dCyFIRscreen profiles against 20 GPCRs (200 GPCR-Gα strains); assay type: cell-based, human; conditions: 20 GPCRs incl. all 15 constitutively active receptors
Method: (§3) dCyFIRscreen protocol. Individual Gα reporter strains were grown in SCD LoFo pH=7.0 at 30° C. to an OD=1.0 in a 2.0 mL 96-well DeepWell block (Greiner; 780271-FD). Cells were normalized to an OD of 0.1 in SCD LoFo pH=7.0 using a Biomek NXp liquid-handling robot. 10× ligand/vehicle stocks were prepared (see Table 2) and 4 μL were distributed to each well of a 384-well plate (Greiner; 781096) in quadruplicate using a Biomek NXp. 36 μL normalized cells were distributed to each well containing the appropriate 10× ligand/vehicle. Plates were sealed with a breathable cover (Diversified Biotech; BERM-2000) and incubated at 30° C. Fluorescence readings were collected after 18 hours using a plate reader (ClarioStar, BMG LabTech, Offenburg, Germany) (bottom read, 10 flashes/well, excitation filter: 430-10 nm, dichroic filter: LP 458 nm, emission filter: 482-16 nm, gain=1300 (1500 for FIG. 1B.)). Absorbance readings were also collected after 18 hours using the same instrument (22 flashes/well, excitation filter: 600 nm).

[11] = target: T9, MTNR1A (Homo sapiens, UniProt P48039); experiment: dCyFIRscreen profiling and titrations in yeast GPCR-Gα reporter strains; assay type: cell-based
T9 construct: expressed in transfected cells; host or cells: Saccharomyces cerevisiae BY4741-derived GPCR-Gα reporter strains, X-2 landing pad
T9 sequence (P48039 whole entry): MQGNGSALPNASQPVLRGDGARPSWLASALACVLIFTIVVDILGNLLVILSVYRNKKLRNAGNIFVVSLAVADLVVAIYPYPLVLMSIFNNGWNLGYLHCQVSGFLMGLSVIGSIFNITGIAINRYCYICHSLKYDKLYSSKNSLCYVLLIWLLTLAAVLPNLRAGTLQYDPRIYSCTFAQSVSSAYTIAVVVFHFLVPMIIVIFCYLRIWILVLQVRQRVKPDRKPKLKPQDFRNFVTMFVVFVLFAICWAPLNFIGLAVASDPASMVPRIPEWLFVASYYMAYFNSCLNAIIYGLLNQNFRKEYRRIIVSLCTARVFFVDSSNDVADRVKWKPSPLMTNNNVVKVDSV
Method: as §1, §2

[12] = target: T10, MTNR1B (Homo sapiens, UniProt P49286); experiment: dCyFIRscreen profiling in yeast GPCR-Gα reporter strains; assay type: cell-based
T10 construct: expressed in transfected cells; host or cells: Saccharomyces cerevisiae BY4741-derived GPCR-Gα reporter strains, X-2 landing pad
T10 sequence (P49286 1-362): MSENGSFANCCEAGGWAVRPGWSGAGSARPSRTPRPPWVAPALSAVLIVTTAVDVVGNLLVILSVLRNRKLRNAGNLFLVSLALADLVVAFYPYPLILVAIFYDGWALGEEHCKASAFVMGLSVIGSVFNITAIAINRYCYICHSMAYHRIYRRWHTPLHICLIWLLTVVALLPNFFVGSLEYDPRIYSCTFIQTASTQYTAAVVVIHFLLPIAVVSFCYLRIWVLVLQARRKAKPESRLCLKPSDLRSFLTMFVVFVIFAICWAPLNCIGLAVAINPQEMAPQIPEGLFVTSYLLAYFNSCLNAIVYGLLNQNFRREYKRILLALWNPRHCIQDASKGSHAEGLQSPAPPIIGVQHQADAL
Method: as §1, §2

[13] = target: T11, HTR4 (Homo sapiens, UniProt Q13639); experiment: dCyFIRscreen profiling and titrations in yeast GPCR-Gα reporter strains; assay type: cell-based
T11 construct: expressed in transfected cells; host or cells: Saccharomyces cerevisiae BY4741-derived GPCR-Gα reporter strains, X-2 landing pad
T11 sequence (Q13639 whole entry): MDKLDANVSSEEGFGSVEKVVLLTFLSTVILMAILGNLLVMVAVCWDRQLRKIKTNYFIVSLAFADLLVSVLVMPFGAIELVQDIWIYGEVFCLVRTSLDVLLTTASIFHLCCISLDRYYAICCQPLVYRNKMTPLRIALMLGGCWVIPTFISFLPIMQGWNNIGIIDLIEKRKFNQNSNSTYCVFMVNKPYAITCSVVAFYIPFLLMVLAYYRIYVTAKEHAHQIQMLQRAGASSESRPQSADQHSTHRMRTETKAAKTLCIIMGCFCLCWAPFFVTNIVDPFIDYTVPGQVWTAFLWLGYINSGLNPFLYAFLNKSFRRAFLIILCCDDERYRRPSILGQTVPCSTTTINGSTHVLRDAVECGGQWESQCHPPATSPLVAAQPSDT
Method: as §3, §2

[14] = system: 300-plex of GPCR-Gα reporter strains; experiment: dCyFIRplex FACS sorting of agonist-treated 300-plex; assay type: cell-based, Saccharomyces cerevisiae; conditions: following agonist treatment
Method: dCyFIRplex protocol. […] 10× ligand/vehicle stocks were added to individual wells of a DeepWell block. The consolidated 300-plex or control strains were then added to each well and grown in the presence of ligand/vehicle overnight, so that each culture would reach an OD=4.0 before dCyFIRplex profiling. Samples were washed with sterile ddH2O and normalized to an OD=2.0 in SCD LoFo pH=7.0. Tracer cells were added to each sample at a 1:301 ratio. The final mixture was then transferred into a glass sample tube (USA Scientific; 1450-2810) and used for cell sorting. A BD FACSAria-II cell sorter was used for all dCyFIRplex experiments to assess mTq2 (405 nm excitation, 450/50 nm emission) and mRuby3 fluorescence (535 nm excitation, 610/20 nm emission). A gating strategy was set using the three control samples (DI P1 mTq2, individual Gα reporter strains lacking an integrated receptor, and DI P1 mRuby3) such that tracer cells and any cell expressing mTq2 was sorted into a 14 mL collection tube (USA Scientific; 1485-2810) containing 500 μL YPD. Samples treated with water or 500 μM adenosine (well-characterized using dCyFIRscreen, inexpensive, and water-soluble) were used to build a standard curve measuring total events in the mRuby3 and mTq2 positive gates. The standard curve from a water-treated 300-plex was used to determine the number of tracer events that would correspond to 15,000 events in the mTq2 gate for a water-treated 300-plex. Each sample was sorted until the standardized tracer count was reached. Sorted cells were enriched by outgrowth in 5 mL YPD at 30° C. with shaking (200 rpm) for 18 hours. Cells were harvested by centrifugation at 3,000×g for 5 min, and resuspended in 1 mL ddH2O. Cells were either processed immediately for qPCR deconvolution or frozen in 100 μL aliquots for storage at −20° C. The set of samples comparatively deconvoluted by qPCR and NanoString methods were derived from aliquots of the same dCyFIRplex experiments. […]

[15] = target: T12, S1PR2 (Homo sapiens, UniProt O95136); experiment: dCyFIRscreen profiling and titrations in yeast GPCR-Gα reporter strains; assay type: cell-based
T12 construct: expressed in transfected cells; host or cells: Saccharomyces cerevisiae BY4741-derived GPCR-Gα reporter strains, X-2 landing pad
T12 sequence (O95136 whole entry): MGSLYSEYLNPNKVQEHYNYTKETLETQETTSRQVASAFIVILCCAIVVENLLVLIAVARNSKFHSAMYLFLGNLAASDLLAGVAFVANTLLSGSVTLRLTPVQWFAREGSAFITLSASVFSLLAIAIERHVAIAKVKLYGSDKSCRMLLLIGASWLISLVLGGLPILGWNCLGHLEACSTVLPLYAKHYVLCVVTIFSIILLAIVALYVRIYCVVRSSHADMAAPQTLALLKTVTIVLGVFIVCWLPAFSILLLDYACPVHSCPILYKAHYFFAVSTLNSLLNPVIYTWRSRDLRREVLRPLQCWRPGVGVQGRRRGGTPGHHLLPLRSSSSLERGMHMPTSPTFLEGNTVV
Method: as §1, §2

[16] = target: T13, S1PR1 (Homo sapiens, UniProt P21453); experiment: as above; assay type: cell-based
T13 construct: expressed in transfected cells; host or cells: Saccharomyces cerevisiae BY4741-derived GPCR-Gα reporter strains, X-2 landing pad
T13 sequence (P21453 whole entry): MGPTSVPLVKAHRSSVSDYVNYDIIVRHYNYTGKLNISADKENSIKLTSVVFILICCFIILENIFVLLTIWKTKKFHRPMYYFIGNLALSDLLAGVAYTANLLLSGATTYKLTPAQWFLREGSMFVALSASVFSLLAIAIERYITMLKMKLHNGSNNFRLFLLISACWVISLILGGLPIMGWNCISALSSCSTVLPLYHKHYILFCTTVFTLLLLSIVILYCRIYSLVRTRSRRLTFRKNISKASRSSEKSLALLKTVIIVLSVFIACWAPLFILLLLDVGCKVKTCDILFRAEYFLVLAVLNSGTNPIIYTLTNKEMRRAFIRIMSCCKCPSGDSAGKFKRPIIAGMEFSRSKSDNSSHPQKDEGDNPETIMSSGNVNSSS
Method: as §1, §2

[17] = titration, yeast GPCR-Gα reporter strain

## O=C(O)c1cc(=O)c2ccccc2[nH]1 [KYNA, kynurenic acid]
[1]
  activity at GPR35 in words (mode of action, potency range): activated
[1]; [17]
  EC50: 795 µM
[2]
  activity at ADRA2B in words (mode of action, potency range): micromolar interactions; also recorded: negative allosteric modulator
[3]
  activity at HCAR3 in words (mode of action, potency range): micromolar interactions; also recorded: orthosteric agonist
  EC50: 41 µM
[3]; head-to-head titrations of GPR35 and HCAR3
  fold higher affinity (lower EC50) for HCAR3 compared to GPR35: 18 fold and 18.6 fold
[3]; versus literature EC50 of phenylpropanoic acid
  fold lower EC50 at HCAR3 than phenylpropanoic acid: 5.1 fold

## C[C@]12CC[C@@H](O)C[C@@H]1CC[C@@H]1[C@@H]2CC[C@]2(C)C(=O)CC[C@@H]12 [androsterone]
[1]
  activity at GPR35 in words (mode of action, potency range): increase receptor signaling
[4]
  activity at LPAR1 in words (mode of action): increase receptor signaling
[5]
  activity at GPR68 in words (mode of action): increase receptor signaling and PAMs
[6]
  activity at ADORA2A in words (mode of action): increase receptor signaling
[7]
  activity at GPR4 in words (mode of action): increase receptor signaling and PAMs
[8]
  activity at HCAR2 in words (mode of action): increase receptor signaling
[9]
  activity at LPAR4 in words (mode of action): increase receptor signaling
[3]
  activity at HCAR3 in words (mode of action, potency range): increase receptor signaling and PAMs

## C[C@]12CC[C@H](OS(=O)(=O)O)CC1=CC[C@@H]1[C@@H]2CC[C@]2(C)C(=O)CC[C@@H]12 [DHEA-S]
[10]
  response in control dCyFIRscreen profiles: Neither of these ligands elicited responses

## NCCc1ccccc1 [PEA, phenethylamine]
[2]
  activity at ADRA2B in words (mode of action, potency range): micromolar

## CC(C)CCC[C@@H](C)[C@H]1CC[C@H]2[C@@H]3CC=C4C[C@@H](O)CC[C@]4(C)[C@H]3CC[C@]12C [cholesterol]
[10]
  response in control dCyFIRscreen profiles: Neither of these ligands elicited responses

## CCCCCC(O)CC(=O)O (stereo not drawn) [3-hydroxyoctanoic acid]
[3]; 304 μM versus 24 μM
  fold higher EC50 at HCAR3 observed by Colosimo et al. versus this study: 12.6 fold
[3]
  EC50: 24 µM

## C[C@]12CC[C@H](O)CC1=CC[C@@H]1[C@@H]2CC[C@]2(C)C(=O)CC[C@@H]12 [DHEA, dehydroepiandrosterone]
[1]
  activity at GPR35 in words (mode of action, potency range): increase receptor signaling; also recorded: PAM-agonist
[4]
  activity at LPAR1 in words (mode of action): increase receptor signaling
[5]
  activity at GPR68 in words (mode of action): increase receptor signaling and PAMs
[6]
  activity at ADORA2A in words (mode of action): increase receptor signaling
[7]
  activity at GPR4 in words (mode of action): increase receptor signaling and PAMs
[8]
  activity at HCAR2 in words (mode of action): increase receptor signaling
[9]
  activity at LPAR4 in words (mode of action): increase receptor signaling
[3]
  activity at HCAR3 in words (mode of action, potency range): increase receptor signaling and PAM-agonist and PAMs

## NCCc1c[nH]c2ccc(O)cc12 [serotonin]
[11]
  activity at MTNR1A in words (mode of action, potency range): micromolar interactions
[11]; [17]
  EC50: 60 µM
[2]
  activity at ADRA2B in words (mode of action, potency range): micromolar interactions
[12]
  activity at MTNR1B in words (mode of action): not find that serotonin agonized

## NCCc1c[nH]c2ccccc12 [tryptamine]
[11]
  activity at MTNR1A in words (mode of action, potency range): did not activate
[2]
  activity at ADRA2B in words (mode of action, potency range): did activate
[2]; titration
  EC50 at ADRA2B (in words): micromolar range
[13]
  activity at HTR4 in words (mode of action): did activate
[13]; titration
  EC50 at HTR4 (in words): micromolar range
[12]
  activity at MTNR1B in words (mode of action): did not activate

## COc1ccc2[nH]cc(CCNC(C)=O)c2c1 [melatonin]
[14]
  active cell pool, fraction of cell-sorting events for the 300-plex: 1.0%

## C[C@H](N)C(=O)NCC(=O)N[C@H]1CSSC[C@@H](C(=O)O)NC(=O)[C@H](CO)NC(=O)[C@H]([C@@H](C)O)NC(=O)[C@H](Cc2ccccc2)NC(=O)[C@H]([C@@H](C)O)NC(=O)[C@H](CCCCN)NC(=O)[C@H](Cc2c[nH]c3ccccc23)NC(=O)[C@H](Cc2ccccc2)NC(=O)[C@H](Cc2ccccc2)NC(=O)[C@H](CC(N)=O)NC(=O)[C@H](CCCCN)NC1=O [SRIF-14, Somatostatin-14]
[14]
  active cell pool, fraction of cell-sorting events for the 300-plex: 1.5%

## CCCCCCCCCCCCC/C=C/[C@@H](O)[C@@H](N)COP(=O)(O)O [sphingosine-1-phosphate]
[14]
  active cell pool, fraction of cell-sorting events for the 300-plex: 1.8%

## NCCc1ccc(O)c(O)c1 [dopamine]
[2]
  activity at ADRA2B in words (mode of action, potency range): micromolar agonist

## phenylethanolamine [PEOA]
[2]
  activity at ADRA2B in words (mode of action, potency range): nanomolar

## lysophosphatidic acid [LPA]
[15]
  activity at S1PR2 in words (mode of action, potency range): micromolar interactions; also recorded: higher EC50 values compared to LPAR1
[16]
  activity at S1PR1 in words (mode of action, potency range): higher EC50 values compared to LPAR1

## CCCCCCCCCCC/C=C\CCCCC(=O)O [petroselinic acid]
[15]
  activity at S1PR2 in words (mode of action, potency range): agonist specific for
[16]
  activity at S1PR1 in words (mode of action, potency range): agonist specific for
[4]
  activity at LPAR1 in words (mode of action): agonist specific for
